Assay [1] deals with diamondback moth larvae. Description: leaf dip test, diamondback moth larvae. The settings on record: Plutella xylostella, foliar, Bta 2.7 ppm, flubendiamide 0.215 ppm, mixture 2.7 ppm + 0.215 ppm, read-out: % Efficacy. It is filed as in vivo. The procedure: (§1) The following examples illustrate the synergy of Bacillus thuringiensis subsp. aizawai and flubendiamide when controlling diamondback moth, beet armyworm, soybean looper, corn earworm, and sugarcane borer. Xentari® was used as the source of Bacillus thuringiensis subsp. aizawai and Belt® was used as the source of flubendiamide. The present invention is not limited to the products or formulation types used herein. In each example below, the studies were conducted as follows.
For these tests, standardized laboratory leaf dip methods were used to inoculate plant material with treatment(s). Dry, treated leaves were placed into Petri dishes (100×25 mm) containing filter paper wetted with 500 μl of distilled H2O (“dH2O”). […] Synergy ratings were calculated for each test. […]
(§2) % Cexp=A+B−(AB/100), where % Cexp is the expected efficacy and “in which A and B are the control levels given by the single [insecticides]. […] Adopting a conservative approach, Applicant determined synergy to be present at ratios of ≧1.15. […]
In order to determine synergy, rates below normal field rate ranges must be used. If normal field rate ranges are used, all of the larvae would die (combining a lethal or near lethal dose of Bacillus thuringiensis subsp. aizawai with a lethal dose of flubendiamide would most likely lead to larvae death) in every treatment and synergy would not be able to be determined. […]

Assay [2] relates to beet armyworm larvae. As to the kind of experiment: leaf dip test, beet armyworm larvae. Format: in vivo. The settings on record: Spodoptera exigua, foliar, Bta 2.7 ppm, flubendiamide 0.49 ppm, mixture 2.7 ppm + 0.49 ppm, read-out: % Efficacy. The procedure:
as §1
(§3) For these tests, standardized laboratory leaf dip methods were used to inoculate plant material with treatment(s). Dry, treated leaves were placed into Petri dishes (100×25 mm) containing filter paper wetted with 500 μl of distilled H2O (“dH2O”). Each dish was then infested with between 5 and 10 larvae, dependent on species. Efficacy ratings were taken at specified intervals. Synergy ratings were calculated for each test.
as §2

In assay [3] the test system is cabbage looper larvae. Description: leaf dip test, cabbage looper larvae. The following applies: Trichoplusia ni, foliar, Bta 2.7 ppm, flubendiamide 0.49 ppm, mixture 2.7 ppm + 0.49 ppm, read-out: % Efficacy. It is filed as in vivo.
The test system of assay [4] is sugarcane borer larvae. As to the kind of experiment: leaf dip test, sugarcane borer larvae. It is filed as in vivo. The settings on record: Diatraea saccharalis, foliar, Bta 27 ppm, flubendiamide 2.15 ppm, mixture 27 ppm + 2.15 ppm, read-out: % Efficacy. The method, then:
as §1, §3, §2

The test system of assay [5] is southwestern corn borer larvae. As to the kind of experiment: leaf dip test, southwestern corn borer larvae. It is filed as in vivo. The following applies: foliar, Bta 2.7 ppm, flubendiamide 0.39 ppm, mixture 2.7 ppm + 0.39 ppm, read-out: % Efficacy.
For assay [6], the system named is soybean looper larvae. As to the kind of experiment: leaf dip test, soybean looper larvae. It is filed as in vivo, Chrysodeixis includens. The settings on record: foliar, Bta 27 ppm, flubendiamide 3.9 ppm, mixture 27 ppm + 3.9 ppm, read-out: % Efficacy. The method, then:
as §1, §3, §2

The test system of assay [7] is corn earworm larvae. Description: leaf dip test, corn earworm larvae. It is filed as in vivo. The settings on record: Helicoverpa zea, foliar, Bta 27 ppm, flubendiamide 0.975 ppm, mixture 27 ppm + 0.975 ppm, read-out: % Efficacy. The procedure: as §1, §3, §2

Where two headings read alike, the source gives them in different places.

Take `Cc1cc(C(F)(C(F)(F)F)C(F)(F)F)ccc1NC(=O)c1cccc(I)c1C(=O)NC(C)(C)CS(C)(=O)=O` [Flubendiamide, 3-iodo-N′-(2-mesyl-1,1-dimethylethyl)-N-{4-[1,2,2,2-tetrafluoro-1-(trifluoromethyl)ethyl]-o-tolyl}phthalamide]: the figures for the Emax at 0.215 ppm in assay [1] (24 h after treatment) and in assay [1] (48 h after treatment) were 11% and 25%, respectively. Moreover, the Emax at 0.49 ppm in assay [2] (24 h after treatment) came out at 12%; in assay [2] (48 h after treatment), 26%; in assay [3] (24 h after treatment) it was 4%; in assay [3] (48 h after treatment) it was 21%. Also, the Emax at 2.15 ppm in assay [4] (24 h after treatment) was determined as 44%; in assay [4] (48 h after treatment), 68%. Further, the values for the Emax at 0.39 ppm in assay [5] (24 h after treatment) and in assay [5] (48 h after treatment) were 40% and 49%, respectively. Further, the results for the Emax at 3.9 ppm in assay [6] (24 h after treatment) and in assay [6] (48 h after treatment) were 3% and 20%, respectively. Further, the Emax at 0.975 ppm in assay [7] (24 h after treatment) is 16%; in assay [7] (48 h after treatment), 29%.
